From ChEMBL document CHEMBL1147375, “Three New Bromotyrosine-Derived Metabolites of the Sponge Psammaplysilla purpurea” (J Nat Prod, 1993)
Values after ≈ are worked out from the molar mass of the structure shown. Active and inactive are the calls of the source. The calls are words filed in the database; no cut-off is given here.

Experiments:
[1] = system: Escherichia coli; assay: Antibacterial activity against Escherichia coli at 100 ug/disk; format: functional, organism-based
[2] = system: P388; assay: Cytotoxicity against mouse P388 cells; format: functional, cell-based
[3] = system: Staphylococcus aureus; assay: Antibacterial activity against Staphylococcus aureus at 100 ug/disk; format: functional; conditions: read-out: IZ
[4] = system: Human immunodeficiency virus 1; assay: Antiviral activity against HIV1 Haitian RF at 1 ug/mL; format: functional, organism-based
[5] = system: A549; assay: Cytotoxicity against human A549 cells; format: functional, cell-based
[6] = system: KB; assay: Cytotoxicity against human KB cells; format: functional, cell-based
[7] = system: HT-29; assay: Cytotoxicity against human HT-29 cells; format: functional, cell-based

For `COc1ccc(C/C(=N\O)C(=O)NCCc2cc(Br)c(OCCCN)c(Br)c2)cc1Br` [APLYSAMINE 3], the Activity [1] was “inactive”, the IC50 [2] was 1 µg/mL (≈ 1.61 µM) and the zone of inhibition at 100 µg/disc [3] was 10 mm. The Activity [4] was “inactive”, the IC50 [5] was 2 µg/mL (≈ 3.21 µM) and the IC50 [6] was 5 µg/mL (≈ 8.04 µM). It also gave an IC50 [7] of 2 µg/mL (≈ 3.21 µM).
In the case of `Br.COc1c(Br)cc(C/C(=N\O)C(=O)NCCc2cc(Br)c(OCCCN)c(Br)c2)cc1Br` [APLYSAMINE 4], the Activity [1] is reported as “inactive”, the IC50 [2] is reported as 2.5 µg/mL and the zone of inhibition at 100 µg/disc [3] is reported as 10 mm. The Activity [4] was “inactive”, the IC50 [5] was 2.5 µg/mL and the IC50 [6] was 5 µg/mL. It also gave an IC50 [7] of 2.5 µg/mL.
For `COc1ccc(C/C(=N\O)C(=O)NCCc2cc(Br)c(OCCCNC(=O)CCCCCCCCCCCC(C)C)c(Br)c2)cc1Br` [APLYSAMINE 5], the IC50 [2] was 10 µg/mL (≈ 11.8 µM), the Activity [4] was “inactive” and the IC50 [5] was 2.5 µg/mL (≈ 2.95 µM). It also gave an IC50 [6] of 2 µg/mL (≈ 2.36 µM) and an IC50 [7] of 2.5 µg/mL (≈ 2.95 µM).
